Patent US20040058948A1, “Mappicine analogs, methods of inhibiting retroviral reverse transcriptase and methods of treating retroviruses” (priority 2002, published 2004)
Where “and” joins values, the source holds several entries; their conditions need not be identical. Equal entries are not always repeated. Where two headings read alike, the source gives them in different places.

Columns and labels:
HIV-1 replication [1] = details: published compounds, in words; cited from earlier work
cells [2] = details: published compounds, in words; cited from earlier work
[3] = target: T1, RNA-dependent DNA polymerase activity of HIV reverse transcriptase (Human immunodeficiency virus type 1 group M subtype B, UniProt P04585); test: RNA-dependent DNA polymerase activity assay of HIV reverse transcriptase; type: biochemical, HIV-1; details: 10 μM inhibitor concentration, activity with analog / without analog x 100; for remaining activity at 10 µM: read-out: Residual activity (%) Polymerase
T1 construct: made in house
Method in brief: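 HIV reverse transcriptase RNA-dependent DNA polymerase activity measured with and without mappicine analogs at 10 μM final. Values are % residual activity: activity with compound divided by activity without, ×100.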

HIV-1 replication [4] = test: Cell culture viral growth assay (HIV-1 replication); type: cell-based
[5] = target: T2, RNase H activity of HIV reverse transcriptase (Human immunodeficiency virus type 1 group M subtype B, UniProt P04585); test: Fluorescence (FRET)-based RNase H activity assay of HIV reverse transcriptase; type: biochemical, HIV-1; parameters: final concentration of 2.5 nM of the p51/p66 RT heterodimer in the assay; made in house; details: for remaining activity at 10 µM / Residual activity (%) RNase H: 10 μM inhibitor concentration, activity with analog / without analog x 100; for remaining activity at 10 µM: read-out: Residual activity (%) RNase H; for IC50: read-out: IC50 (μM) against HIV RNase H in vitro
Method in brief: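 p51/p66 HIV-1 RT (usually 2.5 nM) cleaving a 3′-fluorescein RNA/5′-DABCYL DNA hybrid (2.5 μM stock) in 50 mM Tris pH 8.0, 60 mM KCl, 2.5 mM MgCl2, 37 °C; fluorescence rise (ex 490/em 528 nm) read over 3–60 min. Mappicine analogs at 10 μM; % residual activity or % inhibition versus compound-free enzyme.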

[6] = target: T2, RNase H activity of HIV reverse transcriptase; details: read-out: IC50 RNase H inhibition; literature value (Borkow et al. 1997); cited from earlier work
cells [7] = details: published compound, in words; cited from earlier work
[8] = Human immunodeficiency virus 1, read-out: EC50 (μM) against HIV-1 replication

In the case of `O=C(O)C(=O)CC(=O)c1ccc(NC(=O)c2ccccc2)s1` [BTOBA, 4-[5-(benzoylamino)thien-2-yl]-2,4-dioxobutanoic acid], the “antiviral activity against HIV-1 replication in cultured cells” value (shortened to “antiviral activity”) (HIV-1 replication [1]) is given as “cannot inhibit HIV-1 replication in cultured cells” and the “ability to penetrate cells” value (cells [2]) is given as “Neither CPHM nor BTOBA are able to penetrate cells”.

In the case of `O=C(O)C(=NNc1ccc(Cl)cc1)C(=O)O` [CPHM, 2-[(4-chlorophenyl)-hydrazono]-malonic acid], the “antiviral activity” value (HIV-1 replication [1]) is given as “cannot inhibit HIV-1 replication in cultured cells” and the “ability to penetrate cells” value (cells [2]) is given as “Neither CPHM nor BTOBA are able to penetrate cells”.

In the case of `CCC(O)c1cc2n(c(=O)c1C)Cc1c-2nc2ccc(NC(=O)OC(C)(C)C)cc2c1[Si](C)(C)C` (stereo not shown) [AG 2M, 2-tert-Butyloxycarbonylamino-7-(1-hydroxypropyl)-8-methyl-12-trimethylsilanyl-11H-indolizino[1,2-b]quinolin-9-one], the remaining activity at 10 µM [3] is reported as 80%, the EC50 (HIV-1 replication [4]; [8]) is reported as ~5 µM and the remaining activity at 10 µM [5] is reported as 47%. The IC50 [5] was < 10 µM and 8 µM.

`CCc1c2c(nc3ccc(N)cc13)-c1cc(C(O)CC)c(C)c(=O)n1C2` (stereo not shown) [AG 6M, 2-Amino-12-ethyl-7-(1-hydroxypropyl)-8-methyl-11H-indolizino[1,2-b]quinolin-9-one] gave a remaining activity at 10 µM [3] of 76%, an EC50 (HIV-1 replication [4]; [8]) of ~5 µM and a remaining activity at 10 µM [5] of 57%. For the same molecule, the IC50 [5] was < 10 µM and 10 µM.

In the case of `CC(C)(C)c1ccc(C(=O)NN=Cc2c(O)ccc3ccccc23)cc1` [BBNH, N-4-(t-butylbenzoyl)-2-hydroxy-1-napthaldehyde hydrazone], the IC50 [6] is listed as ~2 µM, the “antiviral activity” value (HIV-1 replication [1]) is listed as “demonstrated antiviral activity against HIV-1 replication in cultured cells” and the EC50 (HIV-1 replication [4]; Human immunodeficiency virus 1, cell culture viral growth assay, read-out: EC50 (μM) against HIV-1 replication) is listed as 1.5 µM. For the same molecule, the toxicity to cells (cells [7]) was “highly toxic to cells at concentrations only slightly above those that inhibit virus replication” and the IC50 [5] was 1.8 µM.

With `COc1ccc2nc3c(c([Si](C)(C)C(C)(C)C)c2c1)Cn1c-3cc(C(O)CCC2CCCCC2)c(C)c1=O` (racemic) [4Dδ] the “Residual activity (%) Polymerase” value [3] was 51% and the “Residual activity (%) RNase H” value [5] was 87%.

For `CCC(O)c1cc2n(c(=O)c1C)Cc1c-2nc2ccc(C)cc2c1[Si](C)(C)C(C)(C)C` (stereo not shown) [4Cα], the “Residual activity (%) Polymerase” value [3] was 94% and the “Residual activity (%) RNase H” value [5] was 91%.

In the case of `CCC(O)c1cc2n(c(=O)c1C)Cc1c-2nc2ccc(C)cc2c1[Si](C)(C)C` (stereo not shown) [5Cα], the “Residual activity (%) Polymerase” value [3] is reported as 68% and the “Residual activity (%) RNase H” value [5] is reported as 62%.

With `CCC(O)c1cc2n(c(=O)c1C)Cc1c-2nc2ccc(OC)cc2c1[Si](C)(C)C(C)(C)C` (stereo not shown) [4Dα] the “Residual activity (%) Polymerase” value [3] was 77% and the “Residual activity (%) RNase H” value [5] was 79%.

For `Cc1ccc2nc3c(c(-c4ccccc4)c2c1)Cn1c-3cc(C(=O)C(C)(C)C)c(C)c1=O` [3Cβκ], the “Residual activity (%) Polymerase” value [3] was 63% and the “Residual activity (%) RNase H” value [5] was 96%.

In the case of `COc1ccc2nc3c(c(-c4ccccc4)c2c1)Cn1c-3cc(C(O)Cc2ccccc2)c(C)c1=O` (racemic) [3Dε], the “Residual activity (%) Polymerase” value [3] is reported as 61% and the “Residual activity (%) RNase H” value [5] is reported as 79%.

For `CCC(=O)c1cc2n(c(=O)c1C)Cc1c-2nc2ccc(F)cc2c1[Si](C)(C)C` [5Bακ], the “Residual activity (%) Polymerase” value [3] was 74% and the “Residual activity (%) RNase H” value [5] was 89%.
